In patent US20260078099A1, “COMPOUND, PREPARATION METHOD THEREOF, AND LIPID NANOPARTICLE AND PHARMACEUTICAL COMPOSITION” (priority 2023, published 2026):

Assays:
[1] = LNP size and PDI by dynamic light scattering; assay type: physicochemical; settings: mRNA LNP, cationic lipid/DSPC/cholesterol/PEG-lipid 50:10:38.5:1.5
Description: (§1) In summary, the cationic lipid described herein, DSPC, cholesterol, and PEG-lipid were dissolved in ethanol at a molar ratio of 50:10:38.5:1.5 and diluted in 10 mM to 50 mM citrate buffer at pH 4 with mRNA. Using a microfluidic device, the lipid ethanol solution was mixed with mRNA aqueous solution at a volume ratio of 1:3 and a total flow rate ranging from 6-30 mL/min, preparing LNPs with a total lipid to mRNA weight ratio of approximately 10:1 to 30:1. Ethanol was removed by dialysis and replaced with PBS. Finally, the lipid nanoparticles were filtered through a 0.22 μm sterile filter.
(§2) The size of lipid nanoparticles was measured by dynamic light scattering using a Malvern Zetasizer Nano ZS (Malvern, UK) with a 90° scattering detection mode. The encapsulation efficiency of lipid nanoparticles was determined using the Quant-it Ribogreen RNA Quantitation Kit (Thermo Fisher Scientific, UK) according to the manufacturer's instructions. The apparent pKa of LNP formulations correlates with the delivery efficiency of nucleic acids by LNPs in vivo. The apparent pKa ranges from approximately 5 to 7. An analysis based on fluorescence from 2-(p-tolylamino)-6-naphthalenesulfonic acid (TNS) was used to determine the apparent pKa of formulations. As described above, LNP formulations containing cationic lipid/DSPC/cholesterol/DMG-PEG (50/10/38.5/1.5 mol %) in PBS were prepared. A 300 μM stock solution of TNS in distilled water was prepared. LNP formulations were diluted to 0.1 mg/mL total lipid in 3 mL of buffer solution containing 50 mM sodium citrate, 50 mM sodium phosphate, 50 mM sodium borate, and 30 mM sodium chloride (pH ranged from 3 to 9). […] S-shaped curve best-fit analysis was applied to the fluorescence data, and the pKa value was measured as the pH value producing half-maximal fluorescence intensity.

mice = test: Bioluminescent study, intramuscular injection of F-luc mRNA LNPs; assay type: in vivo; settings: F-luc luminescence flux normalized to MC3; 0.25 mg/kg intramuscular, mice n=3, 6-hour time point
Description: The efficacy of nanoparticle compositions was evaluated using bioluminescent studies. A dose of 0.25 mg/kg (mpk) of the formulation was administered to mice (n=3) via intramuscular injection, and bioluminescence was measured at a 6-hour time point. The test lipid nanoparticles from the MC3 formulation were evaluated, and in some cases, controls (e.g., PBS controls) were assessed for comparison.
The characteristics of the test lipid nanoparticles measured from the test groups, including F-luc luminescence intensity, are listed in the table below.

LNP zeta potential = assay type: physicochemical; settings: mRNA LNP
From the text: Nanoparticle compositions can be characterized by various methods. For example, the morphology and size distribution of nanoparticle compositions can be examined using microscopy (e.g., transmission electron microscopy or scanning electron microscopy). The zeta potential can be measured using dynamic light scattering or potentiometric titration. Dynamic light scattering can also be used to determine particle size. Instruments such as the Zetasizer Nano ZS (Malvern Instruments Ltd., Malvern, Worcestershire, UK) can also be used to measure multiple characteristics of nanoparticle compositions, such as particle size, polydispersity index, and zeta potential.
[…]: The zeta potential of the nanoparticle composition can indicate the electrophoretic potential of the composition. For example, zeta potential may describe the surface charge of the nanoparticle composition. Nanoparticle compositions with relatively low positive or negative charges are generally desirable, as materials with higher charges may interact undesirably with cells, tissues, and other components in the body. In some embodiments, the zeta potential of the nanoparticle composition may be about −10 mV to about +20 mV, about −10 mV to about +15 mV, about −10 mV to about +10 mV, about −10 mV to about +5 mV, about −10 mV to about 0 mV, about −10 mV to about −5 mV, about −5 mV to about +20 mV, about −5 mV to about +15 mV, about −5 mV to about +10 mV, about −5 mV to about +5 mV, about −5 mV to about 0 mV, about 0 mV to about +20 mV, about 0 mV to about +15 mV, about 0 mV to about +10 mV, about 0 mV to about +5 mV, about +5 mV to about +20 mV, about +5 mV to about +15 mV, or about +5 mV to about +10 mV.

[2] = LNP encapsulation efficiency (Quant-it Ribogreen); assay type: physicochemical; settings: mRNA LNP, cationic lipid/DSPC/cholesterol/PEG-lipid 50:10:38.5:1.5
From the text: Encapsulation Efficiency: The encapsulation efficiency of a therapeutic and/or prophylactic agent refers to the amount of the therapeutic and/or prophylactic agent encapsulated within or otherwise associated with the nanoparticle composition relative to the initial amount provided during preparation. Encapsulation efficiency is desirably high (such as close to 100%). Encapsulation efficiency can be measured, for example, by comparing the amount of therapeutic and/or prophylactic agent in a solution containing the nanoparticle composition before and after disruption of the nanoparticle composition using one or more organic solvents or detergents. Fluorescence can be used to measure the amount of free therapeutic and/or prophylactic agent (e.g., RNA) in solution. For the nanoparticle compositions described herein, the encapsulation efficiency of the therapeutic and/or prophylactic agent may be at least 50%, such as 50%, 55%, 60%, 65%, 70%, 75%, 80%, 85%, 90%, 91%, 92%, 93%, 94%, 95%, 96%, 97%, 98%, 99%, or 100%. In some embodiments, the encapsulation efficiency may be at least 80%. In certain embodiments, the encapsulation efficiency may be at least 90%.
as §1, §2

Structure (SMILES)	PDI [1]	Size (nm) [1]	Relative Total flux (mice)	Zeta potential (mV) (LNP zeta potential)	Encapsulation efficiency (%) [2]
CCCCCCCCC(C(=O)NCCCCCCCCCC(=O)OCC1CC=CCC1)N(CCCN(C)C)C(=O)CCCCCCCCCC(=O)OC(CCCCCC)CCCCCC (stereo not shown) [Compound A20]	0.113	93.07 nm	D (D: <0.1.)	17.70 mV	60.65%
CCCCC/C=C\C/C=C\CCCCCCCC(=O)N(CCCN1CCCC1)CC(=O)NCCCCCCCCCCCCCC [Compound A21]	0.071	95.73 nm	C (C: ≥0.1 and <1)	11.03 mV	54.53%
CCCCCCCCNC(=O)C(CCCC)N(CCCN(C)C)C(=O)CCCCCCC(=O)OC(CCCCCCCC)CCCCCCCC (stereo not shown) [Compound A27]	0.11	121.37 nm	A (A: ≥2)	−3.43 mV	95.33%
CCCCCCCCNC(=O)C(CCCCC)N(CCCN(C)C)C(=O)CCCCCCC(=O)OC(CCCCCCCC)CCCCCCCC (stereo not shown) [Compound A28]	0.15	88.05 nm	A (A: ≥2)	−0.41 mV	85.93%
CCCCCCCCNC(=O)C(CCCCCC)N(CCCN(C)C)C(=O)CCCCCCC(=O)OC(CCCCCCCC)CCCCCCCC (stereo not shown) [Compound A29]	0.09	94.71 nm	A (A: ≥2)	−1.24 mV	94.69%
CCCCCCCCNC(=O)C(CCCCCCC)N(CCCN(C)C)C(=O)CCCCCCC(=O)OC(CCCCCCCC)CCCCCCCC (stereo not shown) [Compound A30]	0.12	86.87 nm	B (B: ≥1 and <2)	0.47 mV	96.65%
CCCCCCCCNC(=O)CCCCCNC(=O)C(CCCCCCCC)N(CCCN(C)C)C(=O)CCCCCC(=O)NC(CCCCCCC)CCCCCCC (stereo not shown) [Compound A31]	0.22	79.94 nm	B (B: ≥1 and <2)	−4.31 mV	97.50%
CCCCCCCCNC(=O)C(CCCCCCCC)N(CCCN(C)C)C(=O)CCCCCC(=O)NC(CCCCCCC)CCCCCCC (stereo not shown) [Compound A32]	0.13	85.33 nm	B (B: ≥1 and <2)	1.89 mV	95.33%
CCCCCCCCNC(=O)C(CCCCCCCC)N(CCCN(CC)CC)C(=O)CCCCCCC(=O)OC(CCCCCCCC)CCCCCCCC (stereo not shown) [Compound A33]	0.10	79.84 nm	A (A: ≥2)	0.51 mV	94.69%
CCCCCCCCNC(=O)C(CCCCCCCC)N(CCC1CCCN1C)C(=O)CCCCCCC(=O)OC(CCCCCCCC)CCCCCCCC (stereo not shown) [Compound A34]	0.11	94.21 nm	A (A: ≥2)	2.08 mV	95.23%
CCCCCCCCNC(=O)C(CCCCCCCC)N(CCCCN(C)C)C(=O)CCCCCCC(=O)OC(CCCCCCCC)CCCCCCCC (stereo not shown) [Compound A35]	0.19	74.92 nm	A (A: ≥2)	−7.81 mV	97.34%
CCCCCCCCNC(=O)C(CCCCCCCC)N(CCCN1CCCC1)C(=O)CCCCCCC(=O)OC(CCCCCCCC)CCCCCCCC (stereo not shown) [Compound A36]	0.17	79.52 nm	A (A: ≥2)	−1.82 mV	92.48%
CCCCCC/C=C\CCCCCCCC(C(=O)NCCCCCC)N(CCCN(C)C)C(=O)CCCCCCC(=O)OC(CCCCCCCC)CCCCCCCC (stereo not shown) [Compound A40]	0.17	75.94 nm	C (C: ≥0.1 and <1)	−0.97 mV	93.54%
CCCCCCCCCCOCCCCCCCC(=O)N(CCCN(C)C)C(CCCCCCCC)C(=O)NCCCCCC(=O)OC(CCCCCCCC)CCCCCCCC (stereo not shown) [Compound A41]	0.66	264.60 nm	C (C: ≥0.1 and <1)	−10.28 mV	54.08%
CCCCCCCCCCOCCCCCCCC(=O)N(CCCN(C)C)C(CCCCCCCC)C(=O)NCCCCCCCC (stereo not shown) [Compound A42]	0.19	90.78 nm	A (A: ≥2)	−1.88 mV	95.23%
CCCCCCCCC(CCCCCC)COC(=O)CCCCCNC(=O)C(CCCCC)N(CCCN1CCCC1)C(=O)CCCCCC(=O)OCC(CCCCCC)CCCCCCCC (stereo not shown) [Compound A45]	0.06	79.00 nm	A (A: ≥2)	0.83 mV	94.62%
CCCCCCCCC(CCCCCC)COC(=O)CCCCCNC(=O)C(CCCCC)N(CCCCN1CCCC1)C(=O)CCCCCC(=O)OCC(CCCCCC)CCCCCCCC (stereo not shown) [Compound A46]	0.19	107.50 nm	A (A: ≥2)	−0.55 mV	94.31%
CCCCCCCCC(CCCCCCCC)OC(=O)CCCCCC(=O)N(CCCN(C)C)C(CCCCCCCC)C(=O)NCCCCCC(=O)OCCC12CC3CC(CC(C3)C1)C2 (stereo not shown) [Compound A48]	0.08	64.27 nm	A (A: ≥2)	0.65 mV	94.62%
CCCCCCCC(C(=O)NCCCCCCCCCC(=O)OC(CCCCCC)CCCCCC)N(CCCN(CCO)CCO)C(=O)CCCCCCCCCC(=O)OC(CCCCCC)CCCCCC (stereo not shown) [Compound B2]	0.15	104.5 nm	A (A: ≥2)	−6.41 mV	85.90%
CCCCCCCCC(C(=O)NCCCCCCCCCC(=O)OCCCCCC)N(CCCN(CCO)CCO)C(=O)CCCCCCCCCC(=O)OC(CCCCCC)CCCCCC (stereo not shown) [Compound B3]	0.306	85.75 nm	A (A: ≥2)	−6.91 mV	79.83%
